The record followed here is ChEMBL document CHEMBL5303304, “EUbOPEN Chemogenomics Library - IncuCyte” (2023).

What all share (format): toxicity, cell-based
For series [1], the system named is HEK-293T. In words: Incucyte cell viability with HEK293T. Particulars: human, 10 µM, compound concentration 10 uM.
Series [2] deals with U2OS. In words: Incucyte cell viability with U2OS. Particulars: human, 10 µM, compound concentration 10 uM.
The test system of series [3] is Fibroblast. In words: Incucyte cell viability with human fibroblast. Particulars: 10 µM, compound concentration 10 uM.
Note: unitless GR value; below 1 slowed growth and below 0 cell loss.

As to `Nc1ncnc2c1c(COc1cccc(Cl)c1)nn2C1CCOCC1`, the “Growth Rate” value was determined as 0.75 in series [1] (6 h, replicate number 1); 0.59 in series [1] (6 h, replicate number 2); 0.61 in series [1] (12 h, replicate number 2); 0.83 in series [1] (18 h, replicate number 1); 0.5 in series [1] (18 h, replicate number 2); 0.79 in series [1] (24 h, replicate number 1). The “Growth Rate” value in series [1] (24 h, replicate number 2) was 0.37; in series [2] (6 h, replicate number 1), 0.51; in series [2] (12 h, replicate number 1), 0.63; in series [2] (18 h, replicate number 1) it was 0.81; in series [2] (24 h, replicate number 1) it was 0.83; in series [3] (0 h, replicate number 2), -0.61. Also, the “Growth Rate” value worked out at 0.82 in series [3] (6 h, replicate number 1); 0.47 in series [3] (6 h, replicate number 2); 0.9 in series [3] (12 h, replicate number 1); 0.6 in series [3] (12 h, replicate number 2); 0.74 in series [3] (18 h, replicate number 2); 0.92 in series [3] (24 h, replicate number 2).

Turning to `C=CC(=O)Nc1cccc(C(=O)Nc2ccc(Nc3cc(-c4c(-c5ccc(F)cc5)nc(SC)n4C)ccn3)cc2)c1`, the “Growth Rate” value in series [1] (6 h, replicate number 1) worked out at 0.54; in series [1] (6 h, replicate number 2), 0.39; in series [1] (12 h, replicate number 1), 0.55; in series [1] (12 h, replicate number 2) it was 0.34; in series [1] (18 h, replicate number 1) it was 0.47; in series [1] (18 h, replicate number 2), 0.46. Further, the “Growth Rate” value is listed as 0.57 in series [1] (24 h, replicate number 1); 0.97 in series [2] (24 h, replicate number 2); -0.95 in series [3] (0 h, replicate number 1); 0.71 in series [3] (0 h, replicate number 2).

As to `c1ccc(C2CCN(c3cnc4c(N5CCOCC5)nccn34)CC2)cc1`, the “Growth Rate” value in series [1] (6 h, replicate number 1) came to 0.74; in series [1] (6 h, replicate number 2), 0.9; in series [1] (12 h, replicate number 1), 0.94; in series [1] (18 h, replicate number 2), 0.99; in series [2] (6 h, replicate number 1), 0.91; in series [2] (12 h, replicate number 1) it was 0.92. Further, the “Growth Rate” value in series [2] (18 h, replicate number 1) is 0.9; in series [3] (0 h, replicate number 1), -0.87; in series [3] (6 h, replicate number 2), 0.96; in series [3] (12 h, replicate number 2) it was 0.56; in series [3] (18 h, replicate number 2), 0.64; in series [3] (24 h, replicate number 1), 1.

Regarding `Cc1cn([C@H](C)CC#N)c(=O)c2cc(Cn3nc(C(F)F)cc3Cl)nn12`, the “Growth Rate” value in series [1] (6 h, replicate number 1) is recorded as 0.81; in series [1] (6 h, replicate number 2) it was 0.66; in series [1] (12 h, replicate number 2) it was 0.82; in series [1] (18 h, replicate number 2), 0.9; in series [1] (24 h, replicate number 1) it was 0.97; in series [1] (24 h, replicate number 2) it was 0.89. For the same compound, the “Growth Rate” value in series [2] (6 h, replicate number 1) is 0.38; in series [2] (12 h, replicate number 1), 0.34; in series [2] (18 h, replicate number 1), 0.52; in series [2] (24 h, replicate number 1) it was 0.64; in series [3] (0 h, replicate number 1) it was -1; in series [3] (6 h, replicate number 1), 0.89. Also, the “Growth Rate” value in series [3] (6 h, replicate number 2) came to 0.78; in series [3] (12 h, replicate number 2), 0.58; in series [3] (18 h, replicate number 2) it was 0.99; in series [3] (24 h, replicate number 1) it was 0.93.

With `CN1CCN(C(=O)c2ccc3cc2OCCOCCNc2ccn4ncc-3c4n2)CC1`, the “Growth Rate” value is 0.93 in series [1] (6 h, replicate number 1); 0.6 in series [1] (6 h, replicate number 2); 0.93 in series [1] (12 h, replicate number 2); 0.93 in series [1] (18 h, replicate number 1); 0.85 in series [1] (18 h, replicate number 2); 0.92 in series [1] (24 h, replicate number 1). For the same compound, the “Growth Rate” value was 0.89 in series [1] (24 h, replicate number 2); -0.07 in series [2] (0 h, replicate number 1); 0.81 in series [2] (18 h, replicate number 1); 0.92 in series [3] (0 h, replicate number 2); 0.73 in series [3] (6 h, replicate number 1); 0.92 in series [3] (6 h, replicate number 2).

As for `Nc1ncc2c(n1)-c1c([nH]c3ccc(C4CC4)cc13)CCCC2`, the “Growth Rate” value in series [1] (6 h, replicate number 1) came to 0.37; in series [1] (6 h, replicate number 2), 0.69; in series [1] (12 h, replicate number 1) it was 0.63; in series [1] (12 h, replicate number 2) it was 0.69; in series [1] (18 h, replicate number 1), 0.74; in series [1] (18 h, replicate number 2), 0.8. Moreover, the “Growth Rate” value is on record as 0.71 in series [1] (24 h, replicate number 1); 0.85 in series [1] (24 h, replicate number 2); -0.99 in series [2] (0 h, replicate number 1); 0.47 in series [2] (0 h, replicate number 2); -0.85 in series [2] (6 h, replicate number 2); 0.85 in series [2] (12 h, replicate number 1). Further, the “Growth Rate” value in series [2] (12 h, replicate number 2) is 0.64; in series [2] (18 h, replicate number 1) it was 0.93; in series [2] (18 h, replicate number 2), 0.94; in series [2] (24 h, replicate number 1), 1; in series [2] (24 h, replicate number 2), 0.88; in series [3] (6 h, replicate number 1), 0.08. The “Growth Rate” value worked out at 0.5 in series [3] (6 h, replicate number 2); 0.76 in series [3] (12 h, replicate number 1); 0.75 in series [3] (12 h, replicate number 2); 0.79 in series [3] (18 h, replicate number 2).

As for `Cc1ccc2c(N)c(C(=O)NC3CCc4cc(N5CC6CCC(C5)N6)ccc4C3)sc2n1.O=CO` (stereo unspecified), the “Growth Rate” value is on record as -0.55 in series [1] (6 h, replicate number 1); -0.64 in series [1] (6 h, replicate number 2); -0.47 in series [1] (12 h, replicate number 1); -0.55 in series [1] (12 h, replicate number 2); -0.39 in series [1] (18 h, replicate number 1); -0.46 in series [1] (18 h, replicate number 2). In addition, the “Growth Rate” value in series [1] (24 h, replicate number 1) is on record as -0.32; in series [1] (24 h, replicate number 2) it was -0.37; in series [2] (0 h, replicate number 2) it was 0.59; in series [2] (6 h, replicate number 2), 0.37; in series [2] (12 h, replicate number 1) it was 0.47; in series [2] (12 h, replicate number 2), 0.12. Further, the “Growth Rate” value in series [2] (18 h, replicate number 1) is 0.35; in series [2] (18 h, replicate number 2) it was 0.15; in series [2] (24 h, replicate number 1) it was 0.24; in series [2] (24 h, replicate number 2) it was 0.08; in series [3] (6 h, replicate number 1) it was 0.09; in series [3] (6 h, replicate number 2), -0.1. In addition, the “Growth Rate” value in series [3] (12 h, replicate number 1) is given as 0.09; in series [3] (12 h, replicate number 2), -0.17; in series [3] (18 h, replicate number 1), 0.05; in series [3] (18 h, replicate number 2), -0.26; in series [3] (24 h, replicate number 1) it was 0.01; in series [3] (24 h, replicate number 2), -0.21.

As for `CCN(CC)C/C=C/C(=O)Nc1cc2c(Nc3ccc(F)c(Cl)c3)ncnc2cc1OCC1CC1`, the “Growth Rate” value in series [1] (6 h, replicate number 1) was -0.54; in series [1] (6 h, replicate number 2), -0.45; in series [1] (12 h, replicate number 1), -0.39; in series [1] (12 h, replicate number 2), -0.32; in series [1] (18 h, replicate number 1), -0.32; in series [1] (18 h, replicate number 2) it was -0.35. Also, the “Growth Rate” value is -0.25 in series [1] (24 h, replicate number 1); -0.29 in series [1] (24 h, replicate number 2); -0.62 in series [2] (0 h, replicate number 1); 0.31 in series [2] (6 h, replicate number 1); 0.36 in series [2] (6 h, replicate number 2); -0.19 in series [2] (12 h, replicate number 1). The “Growth Rate” value is 0.08 in series [2] (12 h, replicate number 2); -0.19 in series [2] (18 h, replicate number 1); 0.06 in series [2] (18 h, replicate number 2); -0.24 in series [2] (24 h, replicate number 1); -0.01 in series [2] (24 h, replicate number 2); -0.83 in series [3] (0 h, replicate number 2). The “Growth Rate” value was 0.22 in series [3] (6 h, replicate number 1); -0.01 in series [3] (6 h, replicate number 2); 0 in series [3] (12 h, replicate number 1); -0.26 in series [3] (12 h, replicate number 2); -0.12 in series [3] (18 h, replicate number 1); -0.4 in series [3] (18 h, replicate number 2). Further, the “Growth Rate” value in series [3] (24 h, replicate number 1) is -0.22; in series [3] (24 h, replicate number 2), -0.46.

Turning to `CN(C)C/C=C/C(=O)Nc1cc2c(Nc3ccc(F)c(Cl)c3)ncnc2cc1OC[C@@H]1CCCO1`, the “Growth Rate” value in series [1] (6 h, replicate number 1) is -0.57; in series [1] (6 h, replicate number 2), -0.55; in series [1] (12 h, replicate number 1), -0.36; in series [1] (12 h, replicate number 2), -0.34; in series [1] (18 h, replicate number 1) it was -0.27; in series [1] (18 h, replicate number 2), -0.29. The “Growth Rate” value in series [1] (24 h, replicate number 1) is -0.2; in series [1] (24 h, replicate number 2), -0.22; in series [2] (0 h, replicate number 2), 0.7; in series [2] (6 h, replicate number 1), -0.2; in series [2] (6 h, replicate number 2), -0.14; in series [2] (12 h, replicate number 1), -0.23. Further, the “Growth Rate” value in series [2] (12 h, replicate number 2) is listed as -0.07; in series [2] (18 h, replicate number 1) it was -0.23; in series [2] (18 h, replicate number 2), -0.08; in series [2] (24 h, replicate number 1), -0.17; in series [2] (24 h, replicate number 2), -0.19; in series [3] (0 h, replicate number 2), 0.77. The “Growth Rate” value in series [3] (6 h, replicate number 1) is reported as -0.42; in series [3] (6 h, replicate number 2) it was -0.39; in series [3] (12 h, replicate number 1), -0.37; in series [3] (12 h, replicate number 2) it was -0.36; in series [3] (18 h, replicate number 1), -0.32; in series [3] (18 h, replicate number 2), -0.29. In addition, the “Growth Rate” value in series [3] (24 h, replicate number 1) is recorded as -0.26; in series [3] (24 h, replicate number 2), -0.29.

Turning to `O=C(Nc1ccc(Cl)c(-c2ccccn2)c1)c1cccc(COc2ccc(Br)cc2CNCCO)c1.O=CO`, the “Growth Rate” value in series [1] (6 h, replicate number 1) is given as -0.57; in series [1] (6 h, replicate number 2) it was -0.56; in series [1] (12 h, replicate number 1), -0.44; in series [1] (12 h, replicate number 2), -0.32; in series [1] (18 h, replicate number 1), -0.3; in series [1] (18 h, replicate number 2), -0.2. Also, the “Growth Rate” value in series [1] (24 h, replicate number 1) is -0.2; in series [1] (24 h, replicate number 2), -0.07; in series [2] (6 h, replicate number 1), 0.38; in series [2] (6 h, replicate number 2), 0.78; in series [2] (12 h, replicate number 1), 0.61; in series [2] (12 h, replicate number 2) it was 0.6. Moreover, the “Growth Rate” value in series [2] (18 h, replicate number 1) was 0.3; in series [2] (18 h, replicate number 2), 0.36; in series [2] (24 h, replicate number 1), 0.53; in series [2] (24 h, replicate number 2), 0.33; in series [3] (0 h, replicate number 1), -0.98; in series [3] (0 h, replicate number 2) it was 0.59. The “Growth Rate” value in series [3] (6 h, replicate number 2) is listed as 0.09; in series [3] (12 h, replicate number 1), 0.51; in series [3] (12 h, replicate number 2), -0.14; in series [3] (18 h, replicate number 1) it was 0.29; in series [3] (18 h, replicate number 2), -0.28; in series [3] (24 h, replicate number 1), 0.25. In addition, the “Growth Rate” value in series [3] (24 h, replicate number 2) was -0.36.
